Laboratory results reported in patent US20040248209A1, “Use of g protein-coupled receptor protein” (priority 2001, published 2004).

Columns and labels:
Format in all cases: cell-based
H7TMB56 [1] = molecular target: T1, H7TMB56 (Homo sapiens, UniProt Q96LA9); experiment: intracellular cAMP production promoting activity in CHO cells stably expressing H7TMB56 (clone 22) versus mock cells; conditions: for intracellular cAMP production promoting activity, dose dependency: CHO cell clone highly expressing H7TMB56, FIG. 13; for cAMP production promoting activity (specific agonist activity): dose of 10 μM, H7TMB56 CHO cells (FIG. 10) versus mock cells (FIG. 11); for agonist activity to H7TMB56 (cAMP production), specificity and dose dependency: CHO clone 22 versus mock cells, FIGS. 8 and 9
T1 construct: expressed in transfected cells
Protocol: The same expression vector as used in EXAMPLE 1 was transfected to CHO dhfr^− cells using Gene Transfer (Wako Pure Chemical Industries, Ltd.), which was cultured in nucleic acid-free medium to select transformants. […] The intracellular cAMP level was assayed using cAMP Screen Kit (Applied Biosystems, Inc.). […] Furthermore, the cAMP production promoting activities on H7TMB56 (FIG. 10) and mock cells (FIG. 11) were assayed with respect to various isoprenoid-related substances in a dose of 10 μM (1: isopentenyl pyrophosphate, 2: dimethylallyl pyrophosphate, 3: geranyl pyrophosphate, 4: farnesyl pyrophosphate, 5: geranylgeranyl pyrophosphate, 6: geraniol, 7: farnesol, 8: geranylgeraniol, 9: trans, trans-farnesol, 10: trans, trans-farnesyl bromide, 11: geranyl acetone, 12: geranyl acetate, 13: geranylamine and 14: geranyl chloride). As a result, the agonist activity specific to geranyl pyrophosphate was detected as well, in addition to farnesyl pyrophosphate and geranylgeranyl pyrophosphate (FIG. 10).
In a manner similar to EXAMPLE 2, the intracellular cAMP production promoting activity was assayed on 5 isoprenoid-related substances.

H7TMB56 [2] = molecular target: T1, H7TMB56; experiment: internalization of H7TMB56-GFP fused protein in CHO cells, confocal microscope; conditions: 10^−6 M added to the medium
From the text: An expression plasmid was constructed to express a fused protein of Green Fluorescent Protein (GFP) cDNA isolated from jelly fish Auquorea victoria, fused to H7TMB56 at the C-terminus to fit the translation frame. In this case, a fragment excised out of GFP expression vector pQBI25 (Takara Shuzo Co., Ltd.) was used as GFP cDNA. In H7TMB56, its termination codon was modified by PCR to recognition sequence with restriction enzyme NheI, and the GFP fragment was ligated thereto, which was inserted into the expression vector pAKKO-111H described in EXAMPLE 1. The thus obtained plasmid of the H7TMB56 and GFP -fused protein expression vector was transfected to CHO cells by the following procedure. CHO cells were suspended in a growth medium [DMEM (Dulbecco's Modified Eagle Medium) (GIBCO BRL, Inc.) supplemented with 10% fetal bovine serum, and plated on a Lab-Tekii cover glass chamber with 4 chambers (Nalgen Nunc, Inc.) in a concentration of 0.6×10^5 cells/chamber. After incubation overnight at 37° C. in 5% CO2, transfection was performed. For transfection, Lipofectamine™ 2000 Reagent (GIBCO BRL, Inc., Inc.) was used. First, 2 μl of Lipofectamine™ 2000 Reagent was mixed with 50 μl of OPTI-MEM-I (GIBCO BRL, Inc.). […]

H7TMB56 [3] = molecular target: T1, H7TMB56; experiment: CRE promoter luciferase reporter gene assay in HEK293 cells transiently expressing H7TMB56; conditions: HEK293 cells bearing the H7TMB56 gene (SEQ ID NO: 2) versus other receptor control; 2×10^−4 to 10^−5 M; 4 hours; FIGS. 5 to 7
From the text: The H7TMB56-specific stimulating activity by the isoprenoid-related substances was detected using as an indicator the expression level of reporter gene product (luciferase) produced by expression induction of CRE promoter.
HEK293 cells were suspended in growth medium (DMEM (Dulbecco's Modified Eagle Medium) (Gibco BRL) supplemented with 10% fetal bovine serum (Gibco BRL)) and plated on a 96-well plate of black well (Beckton-Dickinson, Inc.) coated with collagen in 1×10^5 cells/well. […]
The transfected HEK293 cells were washed with an assay buffer (DMEM supplemented with 0.1 % bovine serum albumin), and commercially available compounds containing farnesyl pyrophosphate (Sigma) and geranylgeranyl pyrophosphate (Sigma) diluted with the assay buffer were added to the cells, respectively, in 2×10^−4 to 10^−5 M, followed by incubation at 37° C. for 4 hours in 5% CO2. After the supernatant was discarded, 50 μl of PicaGene LT2.0 (Toyo Ink Mfg. Co., Ltd.) was added as a substrate for assaying the luciferase activity and a luminescence level of the luciferase was measured on a plate reader (ARVO sx Multi-Label Counter, Wallac, Inc.).

H7TMB56 [4] = molecular target: T1, H7TMB56; experiment: activation (phosphorylation) of p44/42 MAP kinase in H7TMB56 expression CHO cells versus mock cells, western blotting; conditions: 0.1 μM, 0, 5, 10 minutes, FIG. 14
Protocol: H7TMB56 expression CHO cells and mock cells were plated on a 6-well plate in 3×10^5 cells/well, followed by incubation overnight. In order to make serum free, the medium was replaced by nucleic acid-free α-MEM medium supplemented with 0.1% BSA and incubation was further continued overnight. Immediately before the assay, pre-incubation was again carried out for 2 hours. After 0.1 μM of farnesyl pyrophosphate was added to the medium to initiate the treatment, the medium was removed by suction at regular time intervals and then a sample buffer for SDS-PAGE was added to terminate the reaction. SDS-PAGE was performed in a conventional manner to transfer the protein onto a nitrocellulose filter. Thereafter, phosphorylated p44/42 MAP kinase was detected following the instructions described in the manual of PhosphoPlus p44/42 MAPK (Thr202/Tyr204) Antibody Kit (Cell Signaling, Inc.).

T1 sequence (Q96LA9 whole entry): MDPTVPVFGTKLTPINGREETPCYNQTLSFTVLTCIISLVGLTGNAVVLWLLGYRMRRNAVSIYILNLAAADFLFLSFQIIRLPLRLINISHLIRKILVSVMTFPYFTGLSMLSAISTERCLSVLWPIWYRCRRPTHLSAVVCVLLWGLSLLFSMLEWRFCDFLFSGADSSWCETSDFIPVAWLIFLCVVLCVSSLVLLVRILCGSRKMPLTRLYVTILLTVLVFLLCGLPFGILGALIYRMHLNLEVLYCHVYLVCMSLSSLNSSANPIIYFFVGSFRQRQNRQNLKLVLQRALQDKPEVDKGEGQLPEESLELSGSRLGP

SMILES | intracellular cAMP production promoting activity, dose dependency (H7TMB56 [1]) | cAMP production promoting activity (specific agonist activity) (H7TMB56 [1]) | agonist activity to H7TMB56 (cAMP production), specificity and dose dependency (H7TMB56 [1]) | internalization of H7TMB56-GFP from cell membrane to cytoplasm (H7TMB56 [2]) | luciferase activity (expression level of reporter gene product by CRE promoter) (H7TMB56 [3]) | phosphorylation of p44/42 MAP kinase (H7TMB56 [4])
CC(C)=CCC/C(C)=C/COP(=O)(O)OP(=O)(O)O [geranyl pyrophosphate] | promoted the production of cAMP dose-dependently | detected | – | – | – | –
CC(C)=CCC/C(C)=C/CC/C(C)=C/COP(=O)(O)OP(=O)(O)O [farnesyl pyrophosphate] | promoted the production of cAMP dose-dependently | detected | confirmed the specificity in the agonist activities | internalization occurred | increased | phosphorylation of MAP kinase was detected
CC(C)=CCC/C(C)=C/CC/C(C)=C/CC/C(C)=C/COP(=O)(O)OP(=O)(O)O [geranylgeranyl pyrophosphate] | promoted the production of cAMP dose-dependently | detected | confirmed the specificity in the agonist activities | – | increased | –
